One data set concerns A549. Put plainly: Cytotoxicity against human A549 cells by SRB assay. The format is functional, cell-based. (In SRB staining, fixed cells bind dye roughly in proportion to their protein.)
Data set [1] in a line: Cytotoxicity against human SKOV3 cells by SRB assay. The format is functional, cell-based. Conditions: SK-OV-3.
The next data set deals with SK-MEL-2. Put plainly: Cytotoxicity against human SK-MEL-2 cells by SRB assay. The data set is classed as functional, cell-based.
The test system of a further data set is XF498. Kind of data set: Cytotoxicity against human XF498 cells by SRB assay. The format is functional, cell-based.
The nature of data set [2]: Anti-neuroinflammatory activity in LPS-activated mouse BV2 cells assessed as inhibition of NO production after 24 hrs by Griess assay. The format is functional, cell-based. Conditions: BV-2, 24 h. (In general: The Griess reaction detects nitrite, a stable product of nitric oxide.)
Data set [3] in a line: Cytotoxicity against mouse BV2 cells assessed as cell viability at 20 uM by MTT assay. The data set is classed as cell-based, BV-2. Conditions: read-out: Activity.
Data set [4] can be described thus: Cytotoxicity in rat C6 cells assessed as cell viability at 20 uM after 24 hrs by MTT assay. The data set is classed as cell-based. The conditions noted are these: read-out: Activity. (In general: Tetrazolium dyes change colour on reduction, which living cells bring about.)
The next data set relates to C6. Kind of data set: Neuroprotective activity in rat C6 cells assessed as NGF secretion at 20 uM after 24 hrs by ELISA. The data set is classed as functional.

Bounds are passed on as bounds.

In general, IC50 refers to the point on the concentration scale where inhibition reaches its midpoint. For the compound `COc1cc([C@H]2OC[C@H]3[C@@H]2CO[C@@H]3c2cc(OC)c(O)c(OC)c2)ccc1O`, the IC50 with A549 is over 30 µM; in data set [1] it was over 30 µM; in the data set with SK-MEL-2, over 30 µM; in the data set on XF498, over 30 µM; in data set [2], 45.6 µM. In data set [3], the viability at 20 µM was found to be 127%. The viability at 24 h, 20 µM in data set [4] was determined as 103%. Besides, in the data set with C6, the Activity is given as 96.39%.

With `COc1cc(C[C@H]2CO[C@H](c3ccc(O)c(OC)c3)[C@@]2(O)CO)ccc1O`, the concentration for half-maximal inhibition (IC50) with A549 is over 30 µM; in data set [1], over 30 µM; in the data set with SK-MEL-2, over 30 µM; in the data set on XF498 it was over 30 µM; in data set [2] it was 215 µM. Further, the viability at 20 µM in data set [3] amounted to 151%. For the same compound, the viability at 24 h, 20 µM in data set [4] is 103%. The Activity in the data set with C6 was 107.88%.

For `COc1cc(/C=C/C(=O)OCCCc2cc(OC)c3c(c2)[C@@H](CO)[C@H](c2cc(OC)c(O[C@@H](CO)[C@H](O)c4ccc(O)c(OC)c4)c(OC)c2)O3)ccc1O`, the half-inhibitory concentration (IC50) is 13.2 µM in the data set with A549; 15.7 µM in data set [1]; 11.1 µM with SK-MEL-2; 18.1 µM in the data set on XF498; 6.82 µM in data set [2]. For the same compound, the viability at 20 µM in data set [3] amounted to 157%. The viability at 24 h, 20 µM in data set [4] came out at 92.3%. For the same compound, the Activity with C6 is reported as 183.95%.

Turning to `COc1cc(C[C@@H]2CO[C@H](c3ccc(O)c(OC)c3)[C@]2(O)CO)ccc1O`, the half-maximal inhibitory concentration (IC50) in the data set on A549 was over 30 µM; in data set [1] it was over 30 µM; in the data set with SK-MEL-2, over 30 µM; in the data set with XF498, over 30 µM; in data set [2] it was over 500 µM. The viability at 20 µM in data set [3] was 128%. In data set [4], the viability at 24 h, 20 µM was determined as 106%. The Activity with C6 came to 107.97%.

In the case of `COc1cc(/C=C\C(=O)OCCCc2cc(OC)c3c(c2)[C@@H](CO)[C@H](c2cc(OC)c(O[C@H](CO)[C@H](O)c4ccc(O)c(OC)c4)c(OC)c2)O3)ccc1O`, the IC50 with A549 was 15.8 µM; in data set [1], 17.6 µM; with SK-MEL-2, 11.4 µM; in the data set on XF498, 19.6 µM; in data set [2], 14.7 µM. The viability at 20 µM in data set [3] was 138%. In addition, the viability at 24 h, 20 µM in data set [4] stood at 97%. Besides, the Activity in the data set on C6 was 155.96%.

Regarding `COc1cc(/C=C/C(=O)OCCCc2cc(OC)c3c(c2)[C@@H](CO)[C@H](c2cc(OC)c(O[C@H](CO)[C@H](O)c4ccc(O)c(OC)c4)c(OC)c2)O3)ccc1O`, the IC50 stood at 16.4 µM with A549; 17.5 µM in data set [1]; 14.1 µM in the data set with SK-MEL-2; 18.4 µM with XF498; 7.04 µM in data set [2]. Also, the viability at 20 µM in data set [3] was 146%. In addition, the viability at 24 h, 20 µM in data set [4] stood at 82.7%. Also, the Activity in the data set with C6 was found to be 153.99%.

As to `COc1cc(C(O)[C@H]2CO[C@H](c3ccc(O)c(OC)c3)[C@H]2CO)ccc1O` (stereo not given in full), the IC50 in the data set with A549 is over 30 µM; in data set [1] it was over 30 µM; in the data set on SK-MEL-2, over 30 µM; in the data set with XF498, over 30 µM; in data set [2] it was 129 µM. The viability at 20 µM in data set [3] amounted to 114%. Also, the viability at 24 h, 20 µM in data set [4] is 104%. In addition, the Activity in the data set on C6 worked out at 101.55%.

Regarding `COc1cc([C@@H]2OC[C@@H]3[C@H]2CO[C@H]3c2ccc(O)c(OC)c2)ccc1O` [(+)-PINORESINOL], the IC50 in the data set on A549 is over 30 µM; in data set [1] it was over 30 µM; with SK-MEL-2, over 30 µM; with XF498 it was over 30 µM; in data set [2] it was 34.2 µM. Moreover, the viability at 20 µM in data set [3] is 148%. Moreover, in data set [4], the viability at 24 h, 20 µM was 105%. For the same compound, in the data set on C6, the Activity is recorded as 106.93%.

Regarding `COc1cc([C@@H]2Oc3c(OC)cc(CCCO)cc3[C@H]2CO)ccc1O` [DIHYDRODEHYDRODICONIFERYL ALCOHOL], the IC50 was over 30 µM in the data set with A549; over 30 µM in data set [1]; over 30 µM with SK-MEL-2; over 30 µM in the data set with XF498; 40 µM in data set [2]. In data set [3], the viability at 20 µM amounted to 129%. Further, the viability at 24 h, 20 µM in data set [4] came out at 105%. Moreover, the Activity in the data set on C6 stood at 97.14%.

In data set [1], `COc1cc([C@@H]2c3cc4c(cc3[C@@H](O[C@@H]3O[C@@H]5CO[C@@H](C)O[C@H]5[C@H](O)[C@H]3O)[C@H]3COC(=O)[C@H]23)OCO4)cc(OC)c1O` [ETOPOSIDE] yielded an IC50 of 0.84 µM.

On to `COc1cc(C[C@H]2CO[C@H](c3ccc(O)c(OC)c3)[C@H]2CO)ccc1O` [LARICIRESINOL], for which the IC50 in the data set on A549 was over 30 µM; in data set [1] it was over 30 µM; in the data set on SK-MEL-2, over 30 µM; in the data set on XF498, over 30 µM; in data set [2] it was 72.6 µM. In data set [3], the viability at 20 µM came to 147%. In addition, in data set [4], the viability at 24 h, 20 µM is 101%. Besides, the Activity in the data set with C6 is recorded as 77.31%.

For `CCCCC/C=C/C(=O)CCc1ccc(O)c(OC)c1` [SHOGAOL], the viability at 24 h, 20 µM in data set [4] worked out at 105%. Also, the Activity in the data set on C6 is 151.75%.

Take `CNC(=N)NCCC[C@H](N)C(=O)O` [TILARGININE]: in data set [2], the IC50 stood at 20.8 µM. Also, in data set [3], the viability at 20 µM was determined as 102%.
